Reference: patent publication US20050158817A1, “Method for the production of a fermentation product from an organism” (Technische Universiteit Delft, priority 2003, published 2005)

Test system: Pseudomonas putida KT2442
Procedure: In accordance with the method of Weusthuis et al. (2001) Biopolymers 3a: Polyesters I: Biological Systems and Biotechnological Production, Wiley-VCH, pp. 291-316, Pseudomonas putida KT2442 was cultured in 8 litres of medium in a 10-litre fed-batch fermentor at 30° C. […] The carbon source in the culture consisted of free fatty acids obtained from coconut oil (Vereenigde Oliefrabrieken, Rotterdam, the Netherlands) in a concentration of 0.4 vol./vol. % per litre of medium, yielding 131 g dry bacteria mass per litre of medium. This carbon source causes the organism to accumulate polyhydroxy alkanoate inclusion bodies. After fermentation, the batter was stored for a maximum of 3 months at 4-8° C.
250 ml of fermentation batter of Pseudomonas putida KT2442 was stirred for 1 hour using a magnetic agitator. […] After adjusting the pH, the mixture was stirred for 30 minutes using a magnetic agitator, whereafter it was homogenised with the aid of a homogeniser (Constant Cell Disruption Systems, Low March, Leerdam, the Netherlands) having a cell volume of 10 ml. The homogeniser was operated at a temperature of 10° C. and the mixture to be homogenised was cooled between homogenisation passages. The number of homogenisation passages was varied from 0 to 5 and the effect of the homogenisation pressure in 1 passage was assessed at 1.0, 1.3, 1.6 or 2.0 kbar. […]

## N [ammonium hydroxide]
pH 11, zero passages (N), cells stored 9 weeks at 4-8° C.
  release of inclusion bodies into the supernatant without homogenisation: releases a fraction of the inclusion bodies into the supernatant even at zero passages
pre-treatment at pH 11, 1 passage at 1.0, 1.3, 1.6 or 2.0 kbar, compared with untreated cells, FIG. 1
  fraction of free inclusion bodies released from the cells versus homogenisation pressure: more inclusion bodies are released from the cells
